Data on four compounds can be found in paper PMC7395068, “The evolution of strategies to minimise the risk of human drug-induced liver injury (DILI) in drug discovery and development” (Archives of Toxicology, 2020).

One data set relates to human hepatocytes. To be noted: cited from earlier work.
For data set [1] the following is noted: cited from earlier work.
Data set [2] deals with RMPCC's. Conditions: cited from earlier work.
For data set [3] the following is noted: cited from earlier work. This is another data set of the same source.
In the next data set the test system is hu-MPCC. To be noted: cited from earlier work.
Data set [4] has as its system HepG2 cells. To be noted: cited from earlier work.
For data set [5], the system named is primary human hepatocytes, NIH3T3 fibroblasts, BSEP, CYP3A4. Conditions: cited from earlier work.
The test system of data set [6] is isolated mouse liver mitochondria. To be noted: In vitro Assay; ref Porceddu 2012; cited from earlier work.
A further data set concerns hLiMTs. Put plainly: Combined HCI (HCS) and cellular ATP 3D assay in hLiMTs.
The conditions of data set [7]: plasma free fraction; cited from earlier work.
Data set [8] relates to rBsep. Conditions: In vitro Assay; ref Dawson 2012; cited from earlier work.
For another data set, the system named is HepG2. Details: method as in Albrecht 2019. Conditions: In vitro Assay; ref Albrecht 2019; cited from earlier work.
The test system of another data set is HepaRG spheroids. Put plainly: Combined HCI (HCS) and cellular ATP 3D assay in HepaRG spheroids. Conditions: for AC50 / minimal effective concentration: Homo sapiens; for DILI prediction HepaRG spheroids (HCS-MEC): Microtissue model structural based (HCI), combined HCS and ATP, MEC < 25 × Cmax.tot cut-off.
Data set [9] has as its system RMPCC's. Conditions: In vitro Assay; ref Khetani 2012; cited from earlier work.
For data set [10] the following is noted: read-out: Human plasma Cmax; total plasma Cmax.tot, median of 9 literature references; cited from earlier work.
The conditions of data set [11]: ref Chen 2011; cited from earlier work.
The subject of the next data set is Upcyte human hepatocytes. To be noted: In vitro Assay; ref Tolosa 2019; cited from earlier work.
Data set [12] is described as follows: Plasma free fraction (fu) and unbound Cmax (Cmax,u). In kind it is in vitro ADME, human. Conditions: unbound plasma Cmax.
Description: The prediction of DILI severity was evaluated further using the 3D combined HCI assays using plasma-free fraction. The majority of fu values were obtained from literature, when unavailable in-house prediction was utilised. Unbound plasma Cmax concentrations (Cmax,u) were derived by multiplying total plasma Cmax with the corresponding free fraction (fu) for each compound.
The next data set relates to PHH. Conditions: In vitro Assay; ref Albrecht 2019; cited from earlier work.
Data set [13] relates to THLE or HepG2 cells, isolated mitochondria, BSEP. To be noted: cited from earlier work.
In data set [14] the test system is THLE-Null and THLE-3A4 cells. To be noted: In vitro Assay; ref Gustafsson 2014; cited from earlier work.
Data set [15] relates to HepG2 cells, primary human hepatocytes. Conditions: In vitro Assay; ref Garside 2014; cited from earlier work.
The test system of data set [16] is HepG2 cells. To be noted: In vitro Assay; ref O'Brien 2006; cited from earlier work.
The test system of data set [17] is rBsep. Details: method as in Dawson 2012. To be noted: In vitro Assay; ref Dawson 2012; cited from earlier work.
Where [18] appears, read: In vitro Assay, ref Schadt 2015.
Where [19] appears, read: Modeled in vitro assays (cytotoxicity, mitochondrial dysfunction, BSEP), ref Aleo et al. 2019.

The AC50 is the midpoint of the concentration-response curve, whichever way the signal moves. In general, Cmax refers to the highest concentration seen after dosing.

The structures appear in SMILES notation. Where two headings read alike, the source gives them in different places.

Description for hLiMTs: 3D spheroid models consisting of either primary human hepatocytes with non-parenchymal cells (hLiMT’s) or HepaRG cells (HepaRG spheroids) were assessed for size (MS), oxidative stress (OS), MMP, mitochondrial mass (MM), GSH and cellular ATP content following drug exposure. Fluorescent images are acquired using the confocal mode of an ArrayScan™ XTI HCI reader (ThermoScientific) following which cellular ATP was measured using 3D CellTiter-Glo (Promega).

In the case of `NC(=O)NO` [hydroxyurea], in the data set with human hepatocytes, the “Structural based (HCI)” value is reported as “-VE”. Further, in data set [1] (in vivo), the “In vivo DILI” value is recorded as “+VE”. In addition, the “RMPCC's” value with RMPCC's [2] is on record as “+VE”. Moreover, in [3] (ref Chen 2016), the “DILI +VE (5-8), DILI -VE (-4)” value is “+VE” and the DILI severity category result is listed as “vMost-DILI-Concern”. The “HMPCC's” value in the data set with hu-MPCC is recorded as “+VE”.
With `NNC(=O)c1ccncc1` [isoniazid, reference compound], the “Structural based (HCI)” value in the data set with HepG2 cells [4] (In vitro Assay, ref Tolosa 2012) was “+VE”; in the data set with human hepatocytes (In vitro Assay, ref Xu 2008), “-VE”. Besides, the “DILI in vitro assay prediction, Tolosa (2012)” value in the data set on HepG2 cells [4] (Structural based (HCI), HepG2, ref Tolosa et al. 2012) is recorded as “-VE”. Further, the “DILI in vitro assay prediction, Schadt (2015)” value in data set [5] (BSEP & Metabolism based, ref Schadt et al. 2015) was “+VE”. The “Cellular toxicity (3T3 cells)” value in data set [5] (setting [18]) is on record as “-VE”. For the same compound, the “Combined Assay” value in [5] (setting [18]) is “+VE”. Also, the “GSH adduct HML” value in data set [5] (setting [18]) was “-VE”. Moreover, the Hepatocyte cellular toxicity result in data set [5] (setting [18]) was “-VE”. In addition, the “MitoTox 3T3” value in data set [5] (setting [18]) was “+VE”. Also, in data set [5] (setting [18]), the hBSEP inhibition result is listed as “-VE”. In addition, in data set [6], the “in vitro data EC2<=1x Cmax” value is given as “+VE”. In addition, the “in vitro data EC20<=2uM” value in [6] was “-VE”. Also, the “DILI prediction hLiMTs (HCS-MEC)” value in the data set on hLiMTs (Microtissue model structural based (HCI), combined HCS and ATP, MEC < 25 × Cmax.tot cut-off) is “-VE”. Besides, the “hLiMTs <25x Avg Cmax ATP” value in the data set with hLiMTs (hLiMTs, ATP endpoint, cut-off <25x Avg Cmax) was “-ve”. In the data set with hLiMTs (hLiMTs, ATP endpoint, cut-off <100x Avg Cmaxu), the “hLiMTs <100x Avg Cmaxu ATP” value was “-ve”. Further, the “hLiMTs <25x Avg Cmax HCS” value with hLiMTs (hLiMTs, HCS endpoints, cut-off <25x Avg Cmax) is recorded as “-ve”. Also, the “hLiMTs <100x Avg Cmaxu HCS” value with hLiMTs (hLiMTs, HCS endpoints, cut-off <100x Avg Cmaxu) is listed as “-ve”. For the same compound, the “hLiMTs <25x Avg Cmax All” value with hLiMTs (hLiMTs, all endpoints (ATP and HCS), cut-off <25x Avg Cmax) is listed as “-ve”. In the data set with hLiMTs (hLiMTs, all endpoints, Cmax max used), the “hLiMTs Cmax max All” value is given as “-ve”. Moreover, the “hLiMTs Cmax min All” value in the data set on hLiMTs (hLiMTs, all endpoints, Cmax min used) is reported as “-ve”. Moreover, the “hLiMTs <10 uM All” value with hLiMTs (hLiMTs, all endpoints, cut-off <10 uM) is “-ve”. Further, the “hLiMTs <100x Avg Cmaxu All” value in the data set with hLiMTs (hLiMTs, all endpoints, cut-off <100x Avg Cmaxu) is “-ve”. The fu in data set [7] is 0.970. In the data set on human hepatocytes (Structural based (HCI), human hepatocytes, ref Xu et al. 2008), the “DILI in vitro assay prediction, Xu (2008)” value is recorded as “-VE”. In the data set with rBsep [8], the “Inhibition of rBsep cutoff<1& cmax u>.2” value is listed as “-VE”. In the data set on rBsep [8], the “Inhibition of rBsep cutoff<3” value is “-VE”. Also, in the data set on HepG2, the “Cytotoxicity HepG2 48 hrs” value is given as “+VE”. Further, in the data set on HepaRG spheroids (HepaRG, ATP endpoint, cut-off <25x Avg Cmax), the “HepaRG <25x Avg Cmax ATP” value is “+ve”. In the data set with HepaRG spheroids (HepaRG, ATP endpoint, cut-off <100x Avg Cmaxu), the “HepaRG <100x Avg Cmaxu ATP” value is recorded as “+ve (<100x Avg Cmaxu)”. Further, in the data set on HepaRG spheroids (HepaRG, HCS endpoints, cut-off <25x Avg Cmax), the “HepaRG <25x Avg Cmax HCS” value is reported as “-ve”. Besides, the “HepaRG <100x Avg Cmaxu HCS” value in the data set on HepaRG spheroids (HepaRG, HCS endpoints, cut-off <100x Avg Cmaxu) is listed as “+ve (<100x Avg Cmaxu)”. Moreover, the “HepaRG <25x Avg Cmax All” value in the data set on HepaRG spheroids (HepaRG, all endpoints (ATP and HCS), cut-off <25x Avg Cmax) is reported as “+ve”. For the same compound, the “HepaRG Cmax max All” value with HepaRG spheroids (HepaRG, all endpoints, Cmax max used) is reported as “+ve”. In the data set with HepaRG spheroids (HepaRG, all endpoints, Cmax min used), the “HepaRG Cmax min All” value is “-ve”. Also, in the data set on HepaRG spheroids (HepaRG, all endpoints, cut-off <10 uM), the “HepaRG <10 uM All” value is reported as “-ve”. The “HepaRG <100x Avg Cmaxu All” value in the data set with HepaRG spheroids (HepaRG, all endpoints, cut-off <100x Avg Cmaxu) is recorded as “+ve (<100x Avg Cmaxu)”. Moreover, the AC50 came out at 3.52 mM in the data set with HepaRG spheroids (HepaRG, read-out: ATP endpoint AC50) and 14 mM in the data set on HepaRG spheroids (HepaRG, read-out: HCS endpoint AC50). The minimal effective concentration with HepaRG spheroids (HepaRG, read-out: ATP endpoint MEC) amounted to 1330 µM; in the data set with HepaRG spheroids (HepaRG, read-out: HCS endpoint MEC), 5790 µM. Besides, the “DILI prediction HepaRG spheroids (HCS-MEC)” value with HepaRG spheroids is reported as “+VE (MEC < 25 × Cmax.tot cut-off)”; in the data set on HepaRG spheroids (listed as Isoniazid) it was “positive”. Further, in data set [1] (Chen et al. 2016 or literature alignment, ref Chen et al. 2016), the “Assigned DILI category” value is given as 3. The “In vivo DILI” value in data set [1] ([…]), in [1] (ref Albrecht 2019), in data set [1] (ref Aleo 2019), in [1] (ref Dawson 2012), in data set [1] (ref Garside 2014) and in data set [1] (ref Gustafsson 2014) was “+VE” throughout. Also, the “In vivo DILI” value in data set [1] (ref Khetani 2012), in data set [1] (ref Porceddu 2012), in data set [1] (ref Schadt 2015), in data set [1] (ref Tolosa 2012), in data set [1] (ref Tolosa 2019) and in data set [1] (ref Xu 2008) was “+VE” in each case. Also, the “RMPCC's” value with RMPCC's [9] is given as “-VE”. In addition, the “DILI severity category (Chen 2016)” value in data set [3] (human DILI classification, LTKB DILIrank, ref Chen et al. 2016) is listed as “Most”. Moreover, the DILI severity category entry in [3] (human DILI severity, ref Chen et al.) was “Most”; in data set [3] (ref Chen 2016) it was “vMost-DILI-Concern”. Further, the “DILI +VE (5-8), DILI -VE (-4)” value in data set [3] (ref Chen 2016) is listed as “+VE”. In addition, in data set [10], the Cmax is 76.6 µM. Also, the “DILI Score (FDA) (1-8)” value in data set [11] is 8. For the same compound, the “Upcytes multi donor assay 14day data” value in the data set with Upcyte human hepatocytes is “+VE”. In addition, the “Human plasma Cmax,u” value in data set [12] is 74.267 µM. Further, the “Cytotoxicity PHH 48 hrs” value in the data set with PHH is listed as “+VE”. Also, the “HMPCC's” value in the data set on hu-MPCC (In vitro Assay, ref Khetani 2012) was “+VE”. Besides, in data set [13] (In vitro Assay, ref Aleo 2019), the “Partition Hybrid HRM Score” value was “+VE”. The “Ro2 Hybrid HRM Score” value in data set [13] (In vitro Assay, ref Aleo 2019) is listed as “-VE”. Moreover, the “Partition Hybrid HRM Score ≥4, Aleo (2019)” value in data set [13] (setting [19]) is reported as “+VE (Partition Hybrid HRM Score ≥4)”. Further, in [13] (setting [19]), the “Partition Hybrid HRM Score ≥8, Aleo (2019)” value is listed as “-VE”. In addition, the “Rule of Two hybrid HRM Score ≥3, Aleo (2019)” value in data set [13] (setting [19]) is listed as “-VE”. The “Rule of Two hybrid HRM Score ≥8, Aleo (2019)” value in data set [13] (setting [19]) is recorded as “-VE”. The THLE-Null result in data set [14] was “-VE”. Also, the “Cluster 1-6 +VE Assay” value in data set [15] is given as “-VE”.
Consider `C#CC1(O)CC[C@H]2[C@@H]3CCC4=CC(=O)CC[C@@H]4[C@H]3CC[C@@]21CC` (stereo partly shown) [norgestrel], for which the “Structural based (HCI)” value in the data set on human hepatocytes is given as “-VE”. Also, in data set [1] (in vivo), the “In vivo DILI” value is listed as “+VE”. Besides, the “RMPCC's” value in the data set on RMPCC's [2] is listed as “-VE”. The “HMPCC's” value in the data set with hu-MPCC is reported as “-VE”.
As to `CCCC(CCC)C(=O)O` [valproate], in the data set on HepG2 cells [16], the “Structural based (HCI)” value is listed as “+VE (lowest HCI endpoint IC50 (or in the absence of dose–response < 100 µM) < 30 × total human plasma exposure levels (Cmax.tot))”. Moreover, the “Upcytes multi donor assay 14day data” value with Upcyte human hepatocytes is given as “+VE”. In the data set with rBsep [17], the “Inhibition of rBsep cutoff<1& cmax u>.2” value was “-VE” and the “Inhibition of rBsep cutoff<3” value was “-VE”.
